Columns and labels:
[1] = target: T1, PTPN2 (HiBIT-PTPN2 in 293T.109 cells) (Homo sapiens, UniProt P17706); assay: HiBiT Degradation 293T.109 PTPN2 (Nano-Glo HiBiT Lytic Assay); format: cell-based; conditions: 24.0 hours
T1 construct: expressed in transfected cells; host or cells: 293T.109 (293T WT from ATCC)
T1 sequence (P17706 1-415): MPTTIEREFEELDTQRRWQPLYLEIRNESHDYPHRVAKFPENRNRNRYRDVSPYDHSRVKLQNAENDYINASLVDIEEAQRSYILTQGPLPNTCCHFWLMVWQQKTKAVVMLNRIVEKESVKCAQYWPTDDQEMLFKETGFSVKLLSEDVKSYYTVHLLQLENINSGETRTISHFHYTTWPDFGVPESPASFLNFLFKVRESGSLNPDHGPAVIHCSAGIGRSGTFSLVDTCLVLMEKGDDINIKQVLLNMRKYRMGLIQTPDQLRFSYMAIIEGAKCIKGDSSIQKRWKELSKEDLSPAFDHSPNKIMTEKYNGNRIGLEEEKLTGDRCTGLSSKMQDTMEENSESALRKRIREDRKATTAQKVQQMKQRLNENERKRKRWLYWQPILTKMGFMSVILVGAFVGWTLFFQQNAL
In short: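 Degradation read-out: lytic HiBiT luminescence after 24 h treatment (37 °C, 5% CO2) of 5000 293T cells per well expressing HiBiT-fused PTPN2 from an N-terminal tag. Dosing was 11 points, half-log steps down from 10 μM, in duplicate; vehicle-treated and no-reagent wells served as controls.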

[2] = target: T2, PTPN2 (B16F10.4 cells) (Mus musculus, UniProt Q06180); assay: HiBiT Degradation B16F10.4 PTPN2; format: cell-based; conditions: 24.0 hours
T2 construct: HiBiT; host or cells: B16F10.4
T2 sequence (Q06180 1-406): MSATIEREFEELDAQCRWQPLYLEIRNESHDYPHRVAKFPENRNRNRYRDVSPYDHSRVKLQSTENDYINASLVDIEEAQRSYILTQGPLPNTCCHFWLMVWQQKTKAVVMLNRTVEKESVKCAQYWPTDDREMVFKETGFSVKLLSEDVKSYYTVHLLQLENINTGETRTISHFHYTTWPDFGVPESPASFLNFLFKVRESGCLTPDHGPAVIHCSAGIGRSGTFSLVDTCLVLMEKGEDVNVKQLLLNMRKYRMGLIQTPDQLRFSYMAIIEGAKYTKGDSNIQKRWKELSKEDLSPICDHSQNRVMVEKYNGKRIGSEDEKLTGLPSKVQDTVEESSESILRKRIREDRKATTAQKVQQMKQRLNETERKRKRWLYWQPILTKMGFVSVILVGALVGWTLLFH

Compound | DC50 [1] | DC50 [2]
Cn1c(=O)n(C2CCC(=O)NC2=O)c2ccc(N3CCC(OC(=O)Nc4cccc(CS(=O)(=O)N5CC[C@H](Nc6cccc(-c7sc(C(=O)O)c(OCC(=O)O)c7Cl)c6)CC5(C)C)c4)CC3)cc21 (stereo partly drawn) [Example 117, 3-(carboxymethoxy)-4-chloro-5-[3-[[(4S)-1-[[3-[[1-[1-(2,6-dioxo-3-piperidyl)-3-methyl-2-oxo-benzimidazol-5-yl]-4-piperidyl]oxycarbonylamino]phenyl]methylsulfonyl]-2,2-dimethyl-4-piperidyl]amino]phenyl]thiophene-2-carboxylic acid] | 0.05 to 0.2 µM | 0.05 to 0.2 µM
Cn1c(=O)n(C2CCC(=O)NC2=O)c2ccc(OC3CCN(C(=O)Nc4cccc(CS(=O)(=O)N5CC[C@H](Nc6cccc(-c7sc(C(=O)O)c(OCC(=O)O)c7Cl)c6)CC5(C)C)c4)CC3)cc21 (stereo partly shown) [Example 118] | 0.2 to 1 µM | 0.05 to 0.2 µM
Cn1c(=O)n(C2CCC(=O)NC2=O)c2ccc(C3CCN(C(=O)Nc4cc(CS(=O)(=O)N5CC[C@H](Nc6cccc(-c7sc(C(=O)O)c(OCC(=O)O)c7Cl)c6)CC5(C)C)ccc4F)CC3)cc21 (stereo partly drawn) [Example 119, 3-(carboxymethoxy)-4-chloro-5-[3-[[(4S)-1-[[3-[[4-[1-(2,6-dioxo-3-piperidyl)-3-methyl-2-oxo-benzimidazol-5-yl]piperidine-1-carbonyl]amino]-4-fluoro-phenyl]methylsulfonyl]-2,2-dimethyl-4-piperidyl]amino]phenyl]thiophene-2-carboxylic acid] | 0.05 to 0.2 µM | 0.05 to 0.2 µM
Cn1c(=O)n(C2CCC(=O)NC2=O)c2ccc(C3CCN(C(=O)Nc4cc(CS(=O)(=O)N5CC[C@@H](Nc6cccc(-c7sc(C(=O)O)c(OCC(=O)O)c7Cl)c6)CC5(C)C)ccc4F)CC3)cc21 (stereo partly shown) [Example 120] | 0.05 to 0.2 µM | < 0.05 µM
Cn1c(=O)n(C2CCC(=O)NC2=O)c2ccc(C3CCN(C(=O)Nc4cccc(CS(=O)(=O)N5CCC(Nc6cc(-c7sc(C(=O)O)c(OCC(=O)O)c7Cl)ccc6F)CC5)c4)CC3)cc21 (stereo not shown) [Example 121, 3-(carboxymethoxy)-4-chloro-5-[3-[[1-[[3-[[4-[1-(2,6-dioxo-3-piperidyl)-3-methyl-2-oxo-benzimidazol-5-yl]piperidine-1-carbonyl]amino]phenyl]methylsulfonyl]-4-piperidyl]amino]-4-fluoro-phenyl]thiophene-2-carboxylic acid] | 0.2 to 1 µM | 0.05 to 0.2 µM
Cn1c(=O)n(C2CCC(=O)NC2=O)c2ccc(N3CCC(C(=O)Nc4cccc(CS(=O)(=O)N5CC[C@H](Nc6cccc(-c7sc(C(=O)O)c(OCC(=O)O)c7Cl)c6)CC5(C)C)c4)CC3)cc21 (stereo partly shown) [Example 122] | 0.05 to 0.2 µM | 0.05 to 0.2 µM
Cn1c(=O)n(C2CCC(=O)NC2=O)c2ccc(C3CCN(C(=O)Nc4cccc(CS(=O)(=O)N5CCC(Nc6cccc(-c7sc(C(=O)O)c(OCC(=O)O)c7Cl)c6F)CC5)c4)CC3)cc21 (stereo not shown) [Example 123, 3-(carboxymethoxy)-4-chloro-5-[3-[[1-[[3-[[4-[1-(2,6-dioxo-3-piperidyl)-3-methyl-2-oxo-benzimidazol-5-yl]piperidine-1-carbonyl]amino]phenyl]methylsulfonyl]-4-piperidyl]amino]-2-fluoro-phenyl]thiophene-2-carboxylic acid] | 0.05 to 0.2 µM | 0.05 to 0.2 µM
CC1(C)C[C@@H](Nc2cccc(-c3sc(C(=O)O)c(OCC(=O)O)c3Cl)c2)CCN1S(=O)(=O)Cc1cccc(NC(=O)N2CCC(n3c(=O)n(C4CCC(=O)NC4=O)c4ccccc43)CC2)c1 (stereo partly drawn) [Example 124, 3-(carboxymethoxy)-4-chloro-5-[3-[[(4S)-1-[[3-[[4-[3-(2,6-dioxo-3-piperidyl)-2-oxo-benzimidazol-1-yl]piperidine-1-carbonyl]amino]phenyl]methylsulfonyl]-2,2-dimethyl-4-piperidyl]amino]phenyl]thiophene-2-carboxylic acid] | 0.2 to 1 µM | ≥ 1 µM
Cn1c(=O)n(C2CCC(=O)NC2=O)c2ccc(C3CCN(C(=O)Nc4cccc(CS(=O)(=O)N5CC[C@H](Nc6cccc(-c7sc(C(=O)O)c(OCC(=O)O)c7Cl)c6)CC5(C)C)c4F)CC3)cc21 (stereo partly drawn) [Example 125, 3-(carboxymethoxy)-4-chloro-5-[3-[[(4S)-1-[[3-[[4-[1-(2,6-dioxo-3-piperidyl)-3-methyl-2-oxo-benzimidazol-5-yl]piperidine-1-carbonyl]amino]-2-fluoro-phenyl]methylsulfonyl]-2,2-dimethyl-4-piperidyl]amino]phenyl]thiophene-2-carboxylic acid] | 0.05 to 0.2 µM | < 0.05 µM
CC1(C)C[C@@H](Nc2cccc(-c3sc(C(=O)O)c(OCC(=O)O)c3Cl)c2)CCN1S(=O)(=O)Cc1ccc(F)c(NC(=O)N2CCC(c3ccc4c5c(cccc35)C(=O)N4C3CCC(=O)NC3=O)CC2)c1 (stereo partly shown) [Example 126] | 0.05 to 0.2 µM | < 0.05 µM
CC1(C)C[C@H](Nc2cccc(-c3sc(C(=O)O)c(OCC(=O)O)c3Cl)c2)CCN1S(=O)(=O)Cc1ccc(F)c(NC(=O)N2CCC(c3ccc4c5c(cccc35)C(=O)N4C3CCC(=O)NC3=O)CC2)c1 (stereo partly shown) [Example 127] | 0.2 to 1 µM | < 0.05 µM
CC1(C)C[C@@H](Nc2cccc(-c3sc(C(=O)O)c(OCC(=O)O)c3Cl)c2)CCN1S(=O)(=O)Cc1cccc(NC(=O)N2CCC(c3ccc4c5c(cccc35)C(=O)N4C3CCC(=O)NC3=O)CC2)c1F (stereo partly drawn) [Example 128, 3-(carboxymethoxy)-4-chloro-5-(3-(((4S)-1-((3-(4-(1-(2,6-dioxopiperidin-3-yl)-2-oxo-1,2-dihydrobenzo[cd]indol-6-yl)piperidine-1-carboxamido)-2-fluorobenzyl)sulfonyl)-2,2-dimethylpiperidin-4-yl)amino)phenyl)thiophene-2-carboxylic acid] | 0.05 to 0.2 µM | < 0.05 µM
CC1(C)C[C@H](Nc2cccc(-c3sc(C(=O)O)c(OCC(=O)O)c3Cl)c2)CCN1S(=O)(=O)Cc1cccc(NC(=O)N2CCC(c3ccc4c5c(cccc35)C(=O)N4C3CCC(=O)NC3=O)CC2)c1F (stereo partly drawn) [Example 129, 3-(carboxymethoxy)-4-chloro-5-(3-(((4R)-1-((3-(4-(1-(2,6-dioxopiperidin-3-yl)-2-oxo-1,2-dihydrobenzo[cd]indol-6-yl)piperidine-1-carboxamido)-2-fluorobenzyl)sulfonyl)-2,2-dimethylpiperidin-4-yl)amino)phenyl)thiophene-2-carboxylic acid] | 0.2 to 1 µM | < 0.05 µM
CC1(C)C[C@@H](Nc2cccc(-c3sc(C(=O)O)c(OCC(=O)O)c3Cl)c2)CCN1S(=O)(=O)Cc1cccc(NC(=O)CN2CCC(n3c(=O)n(C4CCC(=O)NC4=O)c4ccccc43)CC2)c1 (stereo partly drawn) [Example 130, 3-(carboxymethoxy)-4-chloro-5-[3-[[(4S)-1-[[3-[[2-[4-[3-(2,6-dioxo-3-piperidyl)-2-oxo-benzimidazol-1-yl]-1-piperidyl]acetyl]amino]phenyl]methylsulfonyl]-2,2-dimethyl-4-piperidyl]amino]phenyl]thiophene-2-carboxylic acid] | 0.2 to 1 µM | 0.2 to 1 µM
Cn1c(=O)n(C2CCC(=O)NC2=O)c2ccc(C3CCN(C(=O)Nc4cccc(CS(=O)(=O)N5CC[C@@H](Nc6cccc(-c7sc(C(=O)O)c(OCC(=O)O)c7Cl)c6)CC5(C)C)c4F)CC3)cc21 (stereo partly shown) [Example 131] | 0.2 to 1 µM | 0.05 to 0.2 µM
Cn1c(=O)n(C2CCC(=O)NC2=O)c2ccc(C3CCN(C(=O)Nc4cccc(CS(=O)(=O)N5CC[C@H](Nc6cc(-c7sc(C(=O)O)c(OCC(=O)O)c7Cl)ccc6F)CC5(C)C)c4)CC3)cc21 (stereo partly drawn) [Example 132, 3-(carboxymethoxy)-4-chloro-5-[3-[[(4S)-1-[[3-[[4-[1-(2,6-dioxo-3-piperidyl)-3-methyl-2-oxo-benzimidazol-5-yl]piperidine-1-carbonyl]amino]phenyl]methylsulfonyl]-2,2-dimethyl-4-piperidyl]amino]-4-fluoro-phenyl]thiophene-2-carboxylic acid] | 0.2 to 1 µM | 0.05 to 0.2 µM
Cn1c(=O)n(C2CCC(=O)NC2=O)c2ccc(C3CCN(C(=O)Nc4cccc(CS(=O)(=O)N5CC[C@@H](Nc6cc(-c7sc(C(=O)O)c(OCC(=O)O)c7Cl)ccc6F)CC5(C)C)c4)CC3)cc21 (stereo partly shown) [Example 133] | 0.2 to 1 µM | 0.05 to 0.2 µM

Source: patent publication US20250302815A1, “PROTEIN TYROSINE PHOSPHATASE TARGETING LIGANDS” (CALICO LIFE SCIENCES LLC, priority 2021, published 2025)
